Results on 1 compound are retold here after patent publication US8945594B2, “Vinylic mask with peel-off effect for topical use containing high concentrations of retinoic acid” (Laboratori Farmaceutici Krymi S.p.A., priority 2010, dated 2015).

The conditions of series [1]: cited from earlier work.
A short description of series [2]: Ex vivo determination of skin-accumulated amount of tretinoin contained in the polyvinylic mask. The note with it: polyvinylic mask 2.5% Trans-Retinoic acid Lot P10044, n = 3, average ± s.d. The series is classed as in vitro ADME, human. As for the experimental part: Assessing the Absence of Skin Permeation of Retinoic Acid During the Application Period by Ex Vivo Determination of Skin-Accumulated Amount of the Tretinoin Contained in the Polyvinylic Mask
An ex vivo study of the skin-accumulated amount of retinoic acid contained in the polyvinylic mask was conducted at the Department of Pharmaceutical Sciences of the University of Milan. The aim of the work was the assessment of the barrier effect by polyvinyl alcohol toward the percutaneous absorption of Trans-Retinoic acid under standard conditions of use of the mask. A sample of polyvinylic mask containing 2.5% Trans-Retinoic acid (Lot n° P10044) was subjected to the test. The membrane was prepared by using skin of human origin, which is the most appropriate for foreseeing in vivo absorption. As it is known that the skin barrier against permeation of exogenous substances by passive diffusion mainly consists of the corneal layer, absorption was assessed by using as membrane the […] (SCE) obtained by mechanical separation of the derm from the skin.
The difference in the amounts of tretinoin accumulated in the membranes over the two exposure times, reported in the following table 1, is not significant; therefore, it is evident how the barrier formed by polyvinyl alcohol interferes, by inhibiting percutaneous absorption of Trans-Retinoic acid and therefore its undesired systemic effects, which instead are present in products lacking said barrier and containing it.

Structures are written as SMILES.

Turning to `CC1=C(/C=C/C(C)=C/C=C/C(C)=C/C(=O)O)C(C)(C)CCC1` [Tretinoin, retinoic acid], in series [1], the solubility in dichloromethane entry is “soluble in dichloromethane”, the solubility in ethanol entry was “scarcely soluble in ethanol”, the solubility in ether result is given as “moderately soluble in ether” and the solubility in water entry is “practically insoluble in water”. Further, in series [2] (exposure time 30 min), the “Amount of SCE-accumulated tretinoin” value was determined as 1.32 ± 1.01 μg/cm^2 and the “Amount of SCE-accumulated tretinoin, % w/w with respect to the amount applied” value came to 1.15 ± 0.84 % w/w. For the same compound, in series [2] (exposure time 60 min), the “Amount of SCE-accumulated tretinoin” value stood at 1.63 ± 0.23 μg/cm^2 and the “Amount of SCE-accumulated tretinoin, % w/w with respect to the amount applied” value worked out at 1.38 ± 0.12 % w/w.
